In the CheMixHub ionic liquid set:
± gives the uncertainty stated by the source.

Assay: xn = mol fraction of the nth substance listed
Details: 100 kPa

[Cl][Zn][Cl] + CCCC[n+]1ccn(C)c1.[Cl-]
303.15 K
Details | electrical conductivity [S/m]
x2 = 0.333 | 0.00188 ± 8e-05
x2 = 0.5 | 0.0237 ± 0.0009
x2 = 0.666 | 0.0171 ± 0.0007

C[NH+](C)CCC=C1c2ccccc2CCc2ccccc21.[Cl-] + CCCC[n+]1ccn(C)c1.[Cl-] + O
electrical conductivity [S/m]
Details | 298 K | 303 K | 308 K | 313 K | 318 K
x2 = 0.00018, x1 = 0.0007057 | 0.498 ± 0.06 | 0.501 ± 0.06 | 0.511 ± 0.06 | 0.509 ± 0.06 | 0.527 ± 0.061
x2 = 0.00018, x1 = 0.0007396 | 0.512 ± 0.06 | 0.519 ± 0.06 | 0.535 ± 0.06 | 0.522 ± 0.06 | 0.55 ± 0.06
x2 = 0.00018, x1 = 0.000773 | 0.524 ± 0.06 | 0.533 ± 0.06 | 0.538 ± 0.06 | 0.536 ± 0.061 | 0.564 ± 0.06
x2 = 0.00018, x1 = 0.0008057 | 0.543 ± 0.061 | 0.55 ± 0.06 | 0.551 ± 0.06 | 0.561 ± 0.061 | 0.581 ± 0.06
x2 = 0.00018, x1 = 0.0008382 | 0.56 ± 0.06 | 0.564 ± 0.06 | 0.566 ± 0.06 | 0.57 ± 0.06 | 0.595 ± 0.061
x2 = 0.00018, x1 = 0.0008701 | 0.569 ± 0.06 | 0.578 ± 0.06 | 0.58 ± 0.061 | 0.587 ± 0.061 | 0.613 ± 0.061
x2 = 0.00018, x1 = 0.0009016 | 0.579 ± 0.06 | 0.589 ± 0.06 | 0.597 ± 0.061 | 0.602 ± 0.061 | 0.629 ± 0.061
x2 = 0.00018, x1 = 0.0009322 | 0.591 ± 0.06 | – | 0.611 ± 0.061 | 0.62 ± 0.061 | –
x2 = 0.0001801, x1 = 8.875e-05 | 0.189 ± 0.06 | 0.186 ± 0.06 | 0.193 ± 0.06 | 0.19 ± 0.06 | 0.188 ± 0.06
x2 = 0.0001801, x1 = 0.0001104 | 0.201 ± 0.06 | 0.198 ± 0.06 | 0.203 ± 0.06 | 0.202 ± 0.06 | 0.202 ± 0.06
x2 = 0.0001801, x1 = 0.0001321 | 0.215 ± 0.06 | 0.209 ± 0.06 | 0.216 ± 0.06 | 0.212 ± 0.06 | 0.21 ± 0.06
x2 = 0.0001801, x1 = 0.0001534 | 0.227 ± 0.06 | 0.223 ± 0.06 | 0.228 ± 0.06 | 0.224 ± 0.06 | 0.224 ± 0.06
x2 = 0.0001801, x1 = 0.0001747 | 0.24 ± 0.06 | 0.235 ± 0.06 | 0.239 ± 0.06 | 0.238 ± 0.06 | 0.235 ± 0.06
x2 = 0.0001801, x1 = 0.0001956 | 0.251 ± 0.06 | 0.248 ± 0.06 | 0.247 ± 0.06 | 0.249 ± 0.06 | 0.249 ± 0.06
x2 = 0.0001801, x1 = 0.0002165 | 0.272 ± 0.06 | 0.27 ± 0.06 | 0.274 ± 0.06 | 0.259 ± 0.06 | 0.26 ± 0.06
x2 = 0.0001801, x1 = 0.0002578 | 0.293 ± 0.06 | 0.288 ± 0.06 | 0.293 ± 0.06 | 0.277 ± 0.06 | 0.285 ± 0.06
x2 = 0.0001801, x1 = 0.0002984 | 0.313 ± 0.06 | 0.306 ± 0.06 | 0.315 ± 0.06 | 0.301 ± 0.06 | 0.31 ± 0.06
x2 = 0.0001801, x1 = 0.0003383 | 0.328 ± 0.06 | 0.328 ± 0.06 | 0.335 ± 0.06 | 0.321 ± 0.06 | 0.332 ± 0.06
x2 = 0.0001801, x1 = 0.0003776 | 0.348 ± 0.06 | 0.345 ± 0.06 | 0.353 ± 0.06 | 0.34 ± 0.06 | 0.351 ± 0.06
x2 = 0.0001801, x1 = 0.0004164 | 0.365 ± 0.06 | 0.368 ± 0.06 | 0.37 ± 0.06 | 0.357 ± 0.06 | 0.374 ± 0.06
x2 = 0.0001801, x1 = 0.0004544 | 0.385 ± 0.06 | 0.383 ± 0.06 | 0.388 ± 0.06 | 0.381 ± 0.06 | 0.392 ± 0.06
x2 = 0.0001801, x1 = 0.0004919 | 0.406 ± 0.06 | 0.401 ± 0.06 | 0.407 ± 0.06 | 0.397 ± 0.06 | 0.413 ± 0.06
x2 = 0.0001801, x1 = 0.0005289 | 0.42 ± 0.06 | 0.416 ± 0.06 | 0.427 ± 0.06 | 0.42 ± 0.06 | 0.431 ± 0.06
x2 = 0.0001801, x1 = 0.0005653 | 0.437 ± 0.06 | 0.435 ± 0.06 | 0.44 ± 0.06 | 0.433 ± 0.06 | 0.455 ± 0.06
x2 = 0.0001801, x1 = 0.0006012 | 0.451 ± 0.06 | 0.452 ± 0.06 | 0.46 ± 0.06 | 0.457 ± 0.06 | 0.471 ± 0.06
x2 = 0.0001801, x1 = 0.0006365 | 0.469 ± 0.06 | 0.469 ± 0.06 | 0.476 ± 0.06 | 0.472 ± 0.06 | 0.493 ± 0.06
x2 = 0.0001801, x1 = 0.0006715 | 0.485 ± 0.06 | 0.485 ± 0.06 | 0.496 ± 0.06 | 0.491 ± 0.06 | 0.51 ± 0.06
x2 = 0.0001802, x1 = 2.245e-05 | 0.15 ± 0.06 | – | 0.147 ± 0.06 | 0.156 ± 0.06 | 0.152 ± 0.06
x2 = 0.0001802, x1 = 4.474e-05 | 0.165 ± 0.06 | 0.159 ± 0.06 | 0.162 ± 0.06 | 0.167 ± 0.06 | 0.163 ± 0.06
x2 = 0.0001802, x1 = 6.683e-05 | 0.177 ± 0.06 | 0.174 ± 0.06 | 0.182 ± 0.06 | 0.179 ± 0.06 | 0.176 ± 0.06

CC[n+]1ccccc1.N#C[N-]C#N + CCCO
Details | viscosity [mPa·s]
288.15 K, x2 = 0.1095 | 20.5 ± 2.1
288.15 K, x2 = 0.1947 | 17.6 ± 1.8
288.15 K, x2 = 0.8012 | 4.59 ± 0.46
293.15 K, x2 = 0 | 22.1 ± 2.2
293.15 K, x2 = 0.3011 | 13.3 ± 1.3
293.15 K, x2 = 0.8012 | 4.05 ± 0.41
298.15 K, x2 = 0.5008 | 7.45 ± 0.75
298.15 K, x2 = 0.9 | 2.77 ± 0.28
303.15 K, x2 = 0.4029 | 8.04 ± 0.81
303.15 K, x2 = 0.702 | 4.19 ± 0.42
308.15 K, x2 = 0.1947 | 9.87 ± 0.99
308.15 K, x2 = 0.5008 | 5.9 ± 0.59
308.15 K, x2 = 0.8012 | 2.92 ± 0.29
308.15 K, x2 = 0.9 | 2.24 ± 0.22
313.15 K, x2 = 0.1947 | 8.76 ± 0.88
313.15 K, x2 = 0.5008 | 5.31 ± 0.53
318.15 K, x2 = 0 | 11 ± 1.1
318.15 K, x2 = 0.5008 | 4.8 ± 0.48
318.15 K, x2 = 0.702 | 3.12 ± 0.31
318.15 K, x2 = 0.9 | 1.84 ± 0.18

CC[n+]1ccccc1.N#C[N-]C#N + CCO
Details | viscosity [mPa·s]
288.15 K, x2 = 0 | 25.9 ± 2.6
288.15 K, x2 = 0.1008 | 21.3 ± 2.2
293.15 K, x2 = 0.1008 | 17.9 ± 1.8
298.15 K, x2 = 0 | 18.9 ± 1.9
298.15 K, x2 = 0.1974 | 12.4 ± 1.3
298.15 K, x2 = 0.3008 | 10.3 ± 1
298.15 K, x2 = 0.7999 | 2.54 ± 0.26
303.15 K, x2 = 0.9011 | 1.69 ± 0.17
308.15 K, x2 = 0.5058 | 5.17 ± 0.52
313.15 K, x2 = 0.3994 | 5.99 ± 0.6
313.15 K, x2 = 0.5058 | 4.69 ± 0.47
313.15 K, x2 = 0.5994 | 3.74 ± 0.38
313.15 K, x2 = 0.6996 | 2.92 ± 0.29
318.15 K, x2 = 0.1008 | 8.97 ± 0.9
318.15 K, x2 = 0.3994 | 5.44 ± 0.55

CC[n+]1ccn(CCOC)c1.O=S(=O)([N-]S(=O)(=O)C(F)(F)F)C(F)(F)F + CCO
viscosity [mPa·s]
Details | x1 = 0.1 | x1 = 0.1947 | x1 = 0.2995 | x1 = 0.4 | x1 = 0.5002 | x1 = 0.6001 | x1 = 0.6999 | x1 = 0.8 | x1 = 0.9 | x1 = 1
288.15 K | 2.988 ± 0.091 | 5.32 ± 0.12 | 8.21 ± 0.16 | 12.02 ± 0.23 | 17.17 ± 0.29 | 22.86 ± 0.36 | 29.81 ± 0.45 | 37.73 ± 0.55 | 47.39 ± 0.63 | 54.62 ± 0.35
293.15 K | 2.648 ± 0.078 | 4.62 ± 0.1 | 7.03 ± 0.13 | 10.16 ± 0.19 | 14.5 ± 0.24 | 19.09 ± 0.29 | 24.64 ± 0.36 | 30.74 ± 0.44 | 38.01 ± 0.5 | 43.63 ± 0.49
298.15 K | 2.361 ± 0.068 | 4.046 ± 0.089 | 6.09 ± 0.11 | 8.7 ± 0.16 | 12.31 ± 0.2 | 16.25 ± 0.25 | 20.6 ± 0.29 | 25.4 ± 0.35 | 31.15 ± 0.4 | 35.49 ± 0.4
303.15 K | 2.117 ± 0.06 | 3.591 ± 0.077 | 5.32 ± 0.1 | 7.53 ± 0.13 | 10.53 ± 0.17 | 13.87 ± 0.21 | 17.61 ± 0.25 | 21.35 ± 0.29 | 25.87 ± 0.33 | 29.33 ± 0.33
308.15 K | 1.907 ± 0.053 | 3.195 ± 0.067 | 4.688 ± 0.084 | 6.58 ± 0.12 | 9.1 ± 0.15 | 11.89 ± 0.18 | 15.14 ± 0.21 | 18.22 ± 0.24 | 21.81 ± 0.28 | 24.58 ± 0.28
313.15 K | 1.725 ± 0.047 | 2.861 ± 0.059 | 4.162 ± 0.074 | 5.799 ± 0.099 | 7.91 ± 0.13 | 10.27 ± 0.15 | 13.06 ± 0.18 | 15.8 ± 0.21 | 18.68 ± 0.23 | 20.86 ± 0.23
318.15 K | 1.568 ± 0.042 | 2.576 ± 0.053 | 3.743 ± 0.065 | 5.15 ± 0.086 | 6.95 ± 0.11 | 8.97 ± 0.13 | 11.36 ± 0.16 | 13.73 ± 0.18 | 16.27 ± 0.2 | 18.03 ± 0.2

C[N+](C)(C)CCC[n+]1ccccc1.N#C[N-]C#N.N#C[N-]C#N + CCO
viscosity [mPa·s]
Details | x1 = 0.0999 | x1 = 0.2001 | x1 = 0.3002 | x1 = 0.3999 | x1 = 0.5002 | x1 = 0.6001 | x1 = 0.7003 | x1 = 0.7998 | x1 = 0.8995 | x1 = 1
293.15 K | 6.55 ± 0.66 | 15.6 ± 1.6 | 38 ± 3.8 | 75.8 ± 7.7 | 137 ± 14 | 243 ± 27 | 391 ± 46 | 614 ± 78 | 1038 ± 140 | 2191 ± 340
303.15 K | 5.09 ± 0.51 | 11.8 ± 1.2 | 25.6 ± 2.6 | 49.2 ± 4.9 | 88.3 ± 9 | 138 ± 14 | 205 ± 22 | 291 ± 33 | 435 ± 52 | 830 ± 110
313.15 K | 4.23 ± 0.43 | 9.28 ± 0.93 | 20.7 ± 2.1 | 34.4 ± 3.5 | 58.2 ± 5.8 | 84.3 ± 8.5 | 119 ± 12 | 161 ± 17 | 229 ± 25 | 386 ± 46
323.15 K | 3.55 ± 0.36 | 7.47 ± 0.75 | 15.7 ± 1.6 | 25.2 ± 2.5 | 38.9 ± 3.9 | 56.2 ± 5.6 | 75.8 ± 7.6 | 99 ± 10 | 134 ± 14 | 210 ± 23
333.15 K | 3.1 ± 0.31 | 6.12 ± 0.62 | 11.9 ± 1.2 | 18 ± 1.8 | 28 ± 2.8 | 39.6 ± 4 | 51.4 ± 5.1 | 65.1 ± 6.5 | 85.3 ± 8.6 | 127 ± 13
